{"source": "patent US20190145978A1", "about": "“APPLICATION OF PDE3A IN JUDGMENT OF TUMOR TREATMENT EFFECT OF ANAGRELID” (Shanghai Institute of Materia Medica, Chinese Academy of …, priority 2016, published 2019)", "key": {"A498": {"system": "A498", "assay": "MTT assay, IC50 of anagrelide on tumor cell line", "type": "cell-based", "conditions": "Homo sapiens, 72 h", "protocol": "(§1) 3. Determination of Half Poisoning Dose of Drugs to Cells (MTT Method)\n(§2) The liquid containing drugs was continuously geometrically diluted to 1:10, 1:100, 1:1,000, 1:10,000 with a cell maintenance solution, and a normal cell control group was set up. Different concentrations of each drug were added into a 96-well plate that has been grown into a single layer, respectively, and inoculated per dilution in triplicate, and 100 μl was added per well, and the plate was incubated in a carbon dioxide incubator at 37° C. for 72 h, followed by 5 μg/ml 25 μL of MTT was added.\n(§3) The culture was continued for 3.5 h, and the supernatant was removed and discarded. 150 μl of the dissolving solution DMSO was added to each well, and the plate was shaked for 5 to 10 min, until the crystals were completely dissolved. Then the OD value at 570 nm was measured by a microplate reader. The cell viability of each drug dilution was calculated: cell viability %=(mean value of experimental well OD measured value/mean value of control well OD measured value)×100%. The drug concentration at 50% cell poisoning (IC50) was calculated using probability unit regression.\n(§4) The cell lines in Example 1 were subjected to an activity assay using Anagrelide at a concentration of 1 μM, and the cell lines were classified into three categories according to cell viability: sensitive (S), moderately sensitive (M), and insensitive (R), and the IC50 value of anagrelide in inhibiting each cell line was further determined."}, "Bel7404": {"system": "Bel7404", "assay": "MTT assay, IC50 of anagrelide on tumor cell line", "type": "cell-based", "conditions": "Homo sapiens, BEL-7404, 72 h", "protocol": "as §1, §2, §3, §4"}, "FHCC98": {"system": "FHCC98", "assay": "MTT assay, IC50 of anagrelide on tumor cell line", "type": "cell-based", "conditions": "Homo sapiens, FHCC-98, 72 h", "protocol": "as §1, §2, §3, §4"}, "H4": {"system": "H4", "assay": "MTT assay, IC50 of anagrelide on tumor cell line", "type": "cell-based", "conditions": "Homo sapiens, 72 h", "protocol": "as §1, §2, §3, §4"}, "Hela": {"system": "Hela", "assay": "MTT assay, IC50 of anagrelide on tumor cell line", "type": "cell-based", "conditions": "Homo sapiens, 72 h", "protocol": "as §1, §2, §3, §4"}, "SMMC7721": {"system": "SMMC7721", "assay": "MTT assay, IC50 of anagrelide on tumor cell line", "type": "cell-based", "conditions": "Homo sapiens, SMMC-7721, 72 h", "protocol": "as §1, §2, §3, §4"}, "SW1116": {"system": "SW1116", "assay": "MTT assay, IC50 of anagrelide on tumor cell line", "type": "cell-based", "conditions": "Homo sapiens, SW 1116, 72 h", "protocol": "as §1, §2, §3, §4"}, "[1]": {"system": "SMMC7721, FHCC98, H4, and HeLa", "assay": "Antitumor activity assay (MTT), anagrelide-sensitive PDE3A-positive cell lines", "type": "cell-based, human", "conditions": "for IC50: Homo sapiens", "protocol": "(§5) Wherein anagrelide (1 μM) is used for treatment for 72 hours, and MTT assay is used to detect the cell survival rate. The cells are classified by the test results: sensitive (survival rate <40%), moderately sensitive (40-75% of survival rate), resistance (survival rate >75. The cell names in the figure are marked with a circle and a triangle respectively to identify the sensitive group and the moderately sensitive group. 3. Determination of Half Poisoning Dose of Drugs to Cells (MTT Method) The liquid containing drugs was continuously geometrically diluted to 1:10, 1:100, 1:1,000, 1:10,000 with a cell maintenance solution, and a normal cell control group was set up. Different concentrations of each drug were added into a 96-well plate that has been grown into a single layer, respectively, and inoculated per dilution in triplicate, and 100 μl was added per well, and the plate was incubated in a carbon dioxide incubator at 37° C. for 72 h, followed by 5 μg/ml 25 μL of MTT was added. The culture was continued for 3.5 h, and the supernatant was removed and discarded. 150 μl of the dissolving solution DMSO was added to each well, and the plate was shaked for 5 to 10 min, until the crystals were completely dissolved. Then the OD value at 570 nm was measured by a microplate reader. The cell viability of each drug dilution was calculated: cell viability %=(mean value of experimental well OD measured value/mean value of control well OD measured value)×100%. The drug concentration at 50% cell poisoning (IC50) was calculated using probability unit regression. The cell lines in Example 1 were subjected to an activity assay using Anagrelide at a concentration of 1 μM, and the cell lines were classified into three categories according to cell viability: sensitive (S), moderately sensitive (M), and insensitive (R), and the IC50 value of anagrelide in inhibiting each cell line was further determined."}, "Bel7404, A498 and SW1116": {"system": "Bel7404, A498 and SW1116", "assay": "Antitumor activity assay (MTT), moderately sensitive PDE3A-positive cell lines", "type": "cell-based, human", "protocol": "as §5, with “150 μl of the dissolving solution DMSO was added to each well, and the plate was shaked for 5 to 10 min, until the crystals were completely dissolved.” left out, “The drug concentration at 50% cell poisoning (IC50) was calculated using probability unit regression. The cell lines in Example 1 were subjected to an activity assay using Anagrelide at a concentration of 1 μM, and the cell lines were classified into three categories according to cell viability: sensitive (S), moderately sensitive (M), and insensitive (R), and the IC50 value of anagrelide in inhibiting each cell line was further determined.” left out"}, "[2]": {"system": "Twenty cell lines negatively expressing PDE3A", "assay": "Antitumor activity assay (MTT), PDE3A-negative cell lines", "type": "cell-based, human", "protocol": "as §5, with “150 μl of the dissolving solution DMSO was added to each well, and the plate was shaked for 5 to 10 min, until the crystals were completely dissolved.” left out, “The drug concentration at 50% cell poisoning (IC50) was calculated using probability unit regression. The cell lines in Example 1 were subjected to an activity assay using Anagrelide at a concentration of 1 μM, and the cell lines were classified into three categories according to cell viability: sensitive (S), moderately sensitive (M), and insensitive (R), and the IC50 value of anagrelide in inhibiting each cell line was further determined.” left out"}, "platelets": {"system": "platelets", "assay": "Inhibition of platelets in vitro", "type": "cell-based", "conditions": "Platelet; read-out: IC50 of anagrelide inhibiting platelets in vitro"}, "[3]": {"assay": "Animal experiment, safety at tumor-inhibiting doses", "type": "in vivo", "conditions": "10 mg-200 mg/kg"}, "[4]": {"system": "HeLa cells transfected with pde3a siRNA", "assay": "RTCA growth monitoring of HeLa cells after pde3a siRNA knockdown and anagrelide treatment", "type": "cell-based, human", "conditions": "pde3a siRNA KD1/KD2 vs NC", "protocol": "Wherein, NC: control group, KD: PDE3A knockdown group. The HeLa cells in logarithmic growth phase were inoculated into 96-well plates or RTCA plates at about 6000/well and cultivated overnight until the cells were attached about 70-80%, and the cells were in good condition; a certain amount of serum-free and antibiotic-free medium was added into two EP tubes, respectively, and a suitable amount of siRNA was added into one tube and mixed, while a suitable amount of Lipofectamine™2000 was added into the other tube and mixed at room temperature for 5-10 min. The medium supplemented with Lipofectamine™ reagent was added into the siRNA-containing EP tube and mixed at room temperature for 15 min; during the placement, the cells were washed once with serum-free and non-double antibody medium, and 75 μL of the medium was added, ready for use. After 15 minutes, the mixed medium was added into the cell culture dish, 25 μL/well, and gently shaken and mixed; after cultured at 37° C., 5% CO2 for 6 hours, the medium was changed to fresh medium containing 10% FBS; after 24-72 h, the expression of RNAi interference protein was detected by western blot. […] The real-time monitor automatically monitored cell growth for more than 4 days, and the amount of cells was reflected according to the size of the resistance formed by spreading the cells. […]"}, "[5]": {"system": "HeLa cells transfected with pde3a siRNA", "assay": "PI detection of apoptotic cells in HeLa after PDE3A knockdown and anagrelide treatment", "type": "cell-based, human", "conditions": "48 hours after PDE3A knockout, anagrelide 36 hours, PI staining", "protocol": "The HeLa cells in logarithmic growth phase were inoculated into 96-well plates or RTCA plates at about 6000/well and cultivated overnight until the cells were attached about 70-80%, and the cells were in good condition; a certain amount of serum-free and antibiotic-free medium was added into two EP tubes, respectively, and a suitable amount of siRNA was added into one tube and mixed, while a suitable amount of Lipofectamine™2000 was added into the other tube and mixed at room temperature for 5-10 min. The medium supplemented with Lipofectamine™ reagent was added into the siRNA-containing EP tube and mixed at room temperature for 15 min; during the placement, the cells were washed once with serum-free and non-double antibody medium, and 75 μL of the medium was added, ready for use. After 15 minutes, the mixed medium was added into the cell culture dish, 25 μL/well, and gently shaken and mixed; after cultured at 37° C., 5% CO2 for 6 hours, the medium was changed to fresh medium containing 10% FBS; after 24-72 h, the expression of RNAi interference protein was detected by western blot. In 96-well plates, cells were treated with different compounds for 24-36 hours, and 2 μL of PI dye liquor (25 ug/mL) was added into 96-well plates. Cells were incubated for 20 min, and photographed under a fluorescence microscope for observation of the number of red fluorescent cells. […]"}}, "note": "Read-outs that look alike come from different tables or passages of the source."}
{"smiles": "O=C1CN2Cc3c(ccc(Cl)c3Cl)NC2=N1", "note": "[anagrelide, 6,7-dichloro-1,5-dihydroimidazo [2,1-b]quinazolin-2(3H) one]", "values": [{"measurement": "IC50", "setting": "A498", "result": 15900, "unit": "nM"}, {"measurement": "IC50", "setting": "Bel7404", "result": 428, "unit": "nM"}, {"measurement": "IC50", "setting": "FHCC98", "result": 8, "unit": "nM"}, {"measurement": "IC50", "setting": "H4", "result": 23, "unit": "nM"}, {"measurement": "IC50", "setting": "Hela", "result": 22, "unit": "nM"}, {"measurement": "IC50", "setting": "SMMC7721", "result": 15, "unit": "nM"}, {"measurement": "IC50", "setting": "SW1116", "result": 14500, "unit": "nM"}, {"measurement": "IC50", "setting": "[1]; SMMC7721, FHCC98, H4, HeLa (PDE3A positive), read-out: IC50 values, sensitive cell lines", "result": "< 30", "unit": "nM"}, {"measurement": "IC50", "setting": "[1]; sensitive tumor cells, in vitro, read-out: IC50 for sensitive tumor cells in vitro", "result": "< 30", "unit": "nM"}, {"measurement": "sensitivity class by cell survival rate", "setting": "[1]; anagrelide 1 μM, 72 hours, MTT", "result": "sensitive (sensitive (survival rate <40%))"}, {"measurement": "IC50", "setting": "Bel7404, A498 and SW1116; Homo sapiens, Bel7404, A498, SW1116 (PDE3A positive)", "result": "400 to 16000", "unit": "nM"}, {"measurement": "sensitivity class by cell survival rate", "setting": "Bel7404, A498 and SW1116; anagrelide 1 μM, 72 hours, MTT", "result": "moderately sensitive (moderately sensitive (40-75% of survival rate))"}, {"measurement": "IC50", "setting": "[2]; Homo sapiens, twenty cell lines negatively expressing PDE3A", "result": "> 50000", "unit": "nM"}, {"measurement": "sensitivity class by cell survival rate", "setting": "[2]; anagrelide 1 μM, 72 hours, MTT", "result": "not sensitive"}, {"measurement": "IC50", "setting": "platelets", "result": "270 to 1000", "unit": "nM"}, {"measurement": "safety at doses that inhibit tumor cell growth", "setting": "[3]", "result": "safe"}, {"measurement": "survival rate after anagrelide was added, KD vs NC group", "setting": "[4]", "result": "the survival rate of KD2 with the lower level of PDE3A protein was the highest, while that in the NC group was the lowest"}, {"measurement": "PI positive cells, KD group vs control group", "setting": "[5]", "result": "fewer PI positive cells than that in the control group"}]}
